The target of experiment [1] is T1, AgnB2 Triple mutant + LS domain (Agrobacterium radiobacter, UniProt B9JQP8, A102N/DEL566-572/Q573M/T42P, form not given).
T1 sequence (B9JQP8 1-814 T42P/A102N/Q573M/DEL566-572): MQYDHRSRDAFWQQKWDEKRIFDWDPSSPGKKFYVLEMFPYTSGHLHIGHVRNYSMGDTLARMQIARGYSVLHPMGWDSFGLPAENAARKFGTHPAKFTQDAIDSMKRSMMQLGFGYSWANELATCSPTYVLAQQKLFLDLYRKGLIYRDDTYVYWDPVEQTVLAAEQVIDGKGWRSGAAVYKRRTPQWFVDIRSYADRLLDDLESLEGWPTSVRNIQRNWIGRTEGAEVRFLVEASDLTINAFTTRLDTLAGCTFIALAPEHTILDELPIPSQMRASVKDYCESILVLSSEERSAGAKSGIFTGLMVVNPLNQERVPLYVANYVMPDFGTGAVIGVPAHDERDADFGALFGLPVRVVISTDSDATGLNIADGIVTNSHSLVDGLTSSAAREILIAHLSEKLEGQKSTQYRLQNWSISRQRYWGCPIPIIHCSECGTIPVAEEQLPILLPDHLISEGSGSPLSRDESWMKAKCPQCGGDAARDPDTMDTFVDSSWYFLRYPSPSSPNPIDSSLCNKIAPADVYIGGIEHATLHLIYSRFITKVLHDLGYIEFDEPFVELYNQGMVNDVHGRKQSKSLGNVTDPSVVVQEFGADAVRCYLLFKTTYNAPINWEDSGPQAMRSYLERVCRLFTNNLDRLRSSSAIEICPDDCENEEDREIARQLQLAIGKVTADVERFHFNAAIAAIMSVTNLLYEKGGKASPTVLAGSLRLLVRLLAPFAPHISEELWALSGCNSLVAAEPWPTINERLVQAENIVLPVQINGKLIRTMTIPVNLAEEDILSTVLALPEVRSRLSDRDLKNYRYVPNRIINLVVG
T1 sequence (Q8UBV2 585-631 partner): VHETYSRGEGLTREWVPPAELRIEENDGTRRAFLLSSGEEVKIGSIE
As to the kind of experiment: Isothermal titration calorimetry, AgnB2 Triple mutant + LS domain. The class given is binding, Agrobacterium radiobacter K84. The note with it: ITC, enzyme alone. The text has this: The LS domain of LeuRSAt (141 bp) was inserted into AgnB2 (replacing the region between amino acid no. 566 and 572 with the LS domain)[37] To obtain this, the forward PCR primer was designed to contain the region of AgnB2 (∼25 bp) preceding the LS domain insertion followed by the first 25 bases of the LS domain (5′–3′). Similarly, the reverse primer was designed so as to include the last 25 bp of the LS domain (3′–5′) and the gene sequence of AgnB2 after the LS domain insertion. An extension reaction was carried out to obtain mega primers, (forward and reverse) encoding the entire LS domain (of LeuRSAt) flanked by the sequence of AgnB2 on both sides using the protocol by Wang and Malcolm[42]. DpnI digestion was then carried out to remove the wt template. The resultant mega primer was gel purified using the Qiaex II gel extraction kit (Qiagen) to be used in the second step. […]
Typically, about 4–8 μM active protein solution and a 10-fold higher ligand concentration were prepared in buffer containing 50 mM HEPES (pH 7.4), 20 mM KCl 10 mM MgCl2 and 1 mM β-ME. […] The data was then analyzed using Origin software (version 7) and fitted to a one-site or a two-site binding model to obtain the binding affinity (Kd), stoichiometry (N) and enthalpy (ΔH) for each complex.

Experiment [2] deals with AgnB2 Triple (T42P/A102N/Q573M). As to the kind of experiment: Isothermal titration calorimetry, AgnB2 Triple mutant. The class given is binding, Agrobacterium radiobacter K84. The note with it: ITC. As for the experimental part: Typically, about 4–8 μM active protein solution and a 10-fold higher ligand concentration were prepared in buffer containing 50 mM HEPES (pH 7.4), 20 mM KCl 10 mM MgCl2 and 1 mM β-ME. The titrations were carried out in triplicate at 28 °C. The data was then analyzed using Origin software (version 7) and fitted to a one-site or a two-site binding model to obtain the binding affinity (Kd), stoichiometry (N) and enthalpy (ΔH) for each complex.

The values that follow come from paper PMC5059758, “Structural characterization of antibiotic self-immunity tRNA synthetase in plant tumour biocontrol agent” (Nature Communications, 2016).

As for `CC(C)[C@@H](O)[C@H](O)C(=O)NP(=O)(O)OC[C@@H]1C[C@H](O)[C@H](n2cnc3c(N)ncnc32)O1` [TM84], the “increase in TM84 binding alone compared with wt AgnB2” value in experiment [1] is reported as “fourfold”. Further, the “effect of mutations on TM84 binding, enzyme alone” value in experiment [2] (AgnB2 Triple alone vs wt AgnB2) is “no significant effect”. For the same compound, the “increase in binding of TM84 to the AgnB2·tRNALeu complex” value in experiment [2] (AgnB2 Triple with tRNALeu vs wt AgnB2) is listed as 3.5 fold.
